In US11773108B2, “Indene derivatives useful in treating pain and inflammation” (TARO PHARMACEUTICALS INC., priority 2018, dated 2023):

Tests used:
[1] = test system: T cells isolated from mouse spleens; test: T cell proliferation (anti-CD3/anti-CD28 dynabeads, CCK-8 assay); format: cell-based; details: 72 hours, read-out: Scoring: IC50, cell proliferation
Protocol: weeks old. Cells were harvested under sterile conditions by forcing each spleen though a cell filter (pore size 100 μm diameter). A homogenous cell suspension was obtained by washing the cells in fresh medium and passing cells through a smaller cell filter (pore size 70 μm).
Untouched T cells were isolated using the Pan T cell isolation kit (Miltenyi Biotech). Briefly, cells were counted and incubated with the required volume of antibody cocktail for 5 minutes at 4° C. before addition of microbeads and incubation for 10 minutes at 4° C. Labeled cells were retained in a magnetic column while unlabeled cells (T cells) passed through the column and were retained for use in the assay.
Cell viability was assessed by Trypan Blue exclusion and found to be >99% prior to transfer to plates. Isolated T cells were seeded out in 96 well plates at a density of 50,000 cells per well and allowed to incubate for 60 minutes in a humidified cell culture (37° C., 5% CO2) incubator prior to compound treatment. The media used for this assay (TexMACS, Miltenyi Biotech) was previously optimized for proliferation of T cells in serum free conditions.
Representative compounds of the invention (i.e., test compounds) were prepared as 30 mM stocks in 100% DMSO. Test compounds were initially diluted in media to yield 3 mM stocks before an additional 1:10 dilution in media was performed to yield working stocks of 300 μM (1% DMSO). Subsequent dilutions were performed in media (supplemented with 1% DMSO). When added to the assay plates (1:10 dilution), these yielded final concentrations in the assay plates of in 0.1% DMSO. The reference compound, Cyclosporin A, was prepared in an identical manner as above.
Unstimulated and Stimulated Control wells received an identical volume of TexMACS media/1% DMSO at this time, resulting in a final concentration of 0.1% DMSO across the plate. […] After removal of 60% of the supernatant for subsequent ELISA, cell proliferation was assessed using the CCK-8 assay. […]

[2] = Metabolism by human liver microsomes; format: in vitro ADME; details: human liver microsomes 1 mg/mL protein, 10 μM, in the presence of NADPH, LC-MS/MS
Protocol: Representative compounds of the invention (i.e., test compounds) and the positive control, 7-ethoxycoumarin, were prepared as stock solutions at 10 mM in DMSO and eventually diluted to 10 μM in the test plate, with an appropriate amount of acetonitrile and tris HCl buffer. Final DMSO and acetonitrile concentrations were […] and 0.5% respectively. NADPH was prepared in tris HCl buffer to a stock of 10 mM. A frozen aliquot of liver microsomes was retrieved from the freezer (−80° C.) and thawed by placing the tube on wet ice. After thawing, the tubes were gently mixed and the required amount, transferred to tris HCl buffer. Test compounds or positive control were pre-incubated, separately, for 10 minutes, with liver microsomes (1 mg/mL protein), at 37° C., in 100 mM Tris HCl at pH 7.5. After preincubation the reaction was started by adding 1 mM NADPH (pre-equilibrated to 30° C.) and the reaction allowed to proceed for 60 minutes. At 60 minutes, a 50 μL aliquot was removed and quenched with 200 uL of acetonitrile containing a mixture of internal standards (Tolbutamide (500 ng/mL) and Telmistartan (500 ng/mL)) and vortexed then centrifuged at 4000 rpm for 10 minutes (Eppendorf 5810R). The supernatant was transferred to a 96 well plate for LC-MS/MS analysis.
An LC-MS/MS method was devised for the test compounds and the control, using a AB Sciex API 4000 system coupled to a NEXAR™ UHPLC (Shimadzu) system. Analytes were separated on a Phenomenex Kinetex C18 column (50×2.1 mm, 5 μm) using a gradient that was appropriate for each compound, at a flow rate of 1 ml/minute, utilizing a mobile phase of 0.1% formic acid in MILLI-Q™ water (A) and 0.1% formic acid in acetonitrile (B). The MS instrument was operated in positive mode (ESI+)/negative (ESI−). The multiple reaction monitoring (MRM) transition for test and control compounds was used for the LC-MS/MS analysis. MRM transitions for control compound 7-ethoxycoumarinm were Quadropole 1: 191.0, Quadropole 3:163.0, dwell time: 75 msec, using curtain gas settings of 5 V, ion-spray voltage of 5500 V, temperature of 50° C. and gas settings for nebulizer and auxiliary set to 30 and 40 psi, respectively. The interface heater was kept on. Entrance potential and collision cell exit potential were varied to tune for a specific compound.
Using a suitable LC-MS/MS method, the percentage of drug remaining at 60 minutes ([…]) was assessed by comparing the average analyte to internal standard area ratio at 60 minutes to the average analyte to internal standard area ratio at 0 time control, as a percentage, from a 5 to 10 μL sample injection.
According to the above assay, the test compounds listed in Table 7 below were active in the Human liver microsome assay at 10 μM and the % of drug remaining after 60 minutes (PDR60), in the presence of NADPH, was assessed by LC-MS/MS. Average PDR60 for the standard compound, 7-ethoxycoumarin was <=65% in the presence of NADPH. Scoring for the test compounds, in the presence of NADPH, was as follows: “A” represents a PDR60 of 81 to 100%, “B” represents a PDR60 of 61 to 80%, “C” represents a PDR60 of 31 to 60% and “D” represents a PDR60 of 0 to 30%.

Mice (male, C57BL/6) = test: Formalin pain assay in mice; format: in vivo, mouse; details: 2.5% formalin in left hind paw, time spent flinching/licking/biting
Protocol: Mice (male, C57BL/6) were placed singly in a Perspex chamber for approximately 30 min on three successive days to acclimate and thereby reduce stress-induced behaviors. On the fourth day, the experimental animals received a 25 μl injection of 2.5% formalin beneath the left plantar skin using a 29-gauge syringe. […] The total time spent on flinches/licking/biting of the hind paw was recorded by visual observation for every 5 min period/interval for total observation duration of 60 min in two phases, the early phase (0-5 min) and the late phase (15-40 min). Observers were blinded to the treatment group allocation.
For test compounds, % protection from 0-60 min was used to assess activity. Scoring for the test compounds was as follows: “A” represents a % protection of 81 to 100%, “B” represents a % protection of 61 to 80%, “C” represents a % protection of 31 to 60% and “D” represents a % protection of 0 to 30%.

[3] = test system: rat dorsal root ganglion (DRG) cells; test: Rat dorsal root ganglion (DRG) excitability response to electrical field stimulation; format: cell-based; details: adult rat DRG cells, Ca5 Ca2+ indicator, six concentrations, highest typically 30 μM, read-out: Scoring: EC50, modulation of rat DRG excitability
Protocol: Rat Dorsal Root Ganglion Excitability Response of Representative Compounds Dorsal root ganglions (DRGs) were dissected from adult rats. The tissue was processed, and cells were seeded into cell culture plates (48 center wells of one quadrant in 384-well plates) and cultured for 2 days prior to Electrical field stimulation (EFS). To visualize the neuronal excitability response, intracellular Ca^+2 transients were monitored using the Ca^+2 indicator, Ca5. Ca5 was added to the cultures 1 h prior to EFS. Representative compounds of the invention (i.e., test compounds) and reference compound, tetracaine, were added in concentration-response format encompassing six concentrations, performed in duplicate. The highest concentration tested was typically 30 μM with 1 in 3 dilutions generating the subsequent concentrations.
Effects on DRG excitability by the test compounds and standard were evaluated using four EFS protocols as disclosed in Table 2.
Experimental results were performed using two seperate sets of plates using separate test compound and standard dilutions, to provide n=2. In the first set of experiments, compounds were added 24 h prior to EFS to increase the possibility to also detect more long-term compound effects. In the second set of experiments the compounds were added directly prior to EFS. Excitability response to EFS was analyzed as the average fluorescence ratio (peak/baseline) change per well. All plates were evaluated using high content imaging equipment post-EFS, imaging the Ca5 background staining to detect any possibile compound-related toxic effects.
Average response by the reference compound, tetracaine, was 4.05 μM.

| SMILES | IC50 [1] [µM] | Scoring: % of drug remaining after 60 minutes (PDR60) [2] | Scoring: % protection from 0-60 min (Mice (male, C57BL/6)) | EC50 [3] [µM] |
| --- | --- | --- | --- | --- |
| C[C@@H]1CC[C@@]2(OC1)O[C@H]1C[C@H]3[C@H](CO)[C@@H]([C@@]4(C)Cc5cn[nH]c5C[C@@H]4CO)CC[C@]3(C)[C@H]1[C@@H]2C [Ia-1, ((5R,6S)-5-((2R,3S,3aR,3bS,5′R,6S,7R,7aS,8aS)-7-(hydroxymethyl)-3,3b,5′-trimethyltetradecahydrospiro[indeno[2,1-b]furan-2,2′-pyran]-6-yl)-5-methyl-4,5,6,7-tetrahydro-1H-indazol-6-yl)methanol] | 1.5 to 15 |  |  |  |
| C[C@]1([C@H]2CC[C@]3(C)C(O)CC[C@H]3[C@@H]2CO)Cc2cn[nH]c2C[C@@H]1CO (some centres unmarked) [Ia-10a and Ia-10b] |  | C (“C” represents a PDR60 of 31 to 60%) | C (“C” represents a % protection of 31 to 60%) |  |
| C[C@@H]1CC[C@@]2(OC1)O[C@H]1C[C@H]3[C@H](CN)[C@@H]([C@@]4(C)Cc5cn[nH]c5C[C@@H]4CO)CC[C@]3(C)[C@H]1[C@@H]2C [Ia-2, ((5R,6S)-5-((2R,3S,3aR,3bS,5′R,6S,7R,7aS,8aS)-7-(aminomethyl)-3,3b,5′-trimethyltetradecahydrospiro[indeno[2,1-b]furan-2,2′-pyran]-6-yl)-5-methyl-4,5,6,7-tetrahydro-1H-indazol-6-yl)methanol] | 1.5 to 15 | A (“A” represents a PDR60 of 81 to 100%) | D (“D” represents a % protection of 0 to 30%) | 6 to 15 |
| CC[C@H](CC(O)[C@@H](C)[C@H]1CC[C@H]2[C@H](CO)[C@@H]([C@@]3(C)Cc4cn[nH]c4C[C@@H]3CO)CC[C@]12C)C(C)C (stereo partly drawn) [Ia-9, (2S,5R)-5-ethyl-2-((1R,3aS,4S,5S,7aS)-4-(hydroxymethyl)-5-((5R,6S)-6-(hydroxymethyl)-5-methyl-4,5,6,7-tetrahydro-1H-indazol-5-yl)-7a-methyloctahydro-1H-inden-1-yl)-6-methylheptan-3-ol] | 1.5 to 15 |  |  |  |
